What was measured:
MK2 [1] = target: T1, MK2 (Homo sapiens, UniProt P49137); experiment: MK2 degradation in human THP-1 monocytic cells (MSD, 24 h); format: cell-based; design: endogenous in cells; conditions: for Dmax: THP-1, THP-1 cells; for DC50: THP-1 cells, read-out: MK2 MSD THP-1 degradation 24 h GMean External Abs DC50
Summary of the method: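 THP-1 cells (200,000/well) treated 24 h at 37 °C with compound dilution series (up to 10 points, 0.1% DMSO). MK2 in RIPA lysates quantified by MSD sandwich immunoassay. DC50 from 4-parameter logistic fit, DMSO-treated cells as high and lysis buffer as low signal.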

MK2 [2] = target: T1, MK2; experiment: MK2 degradation in human SW1353 cells (MSD, 24 h); format: cell-based; design: endogenous in cells; host or cells: SW-1353 (ATCC HTB-94); key to MK2 MSD SW 1353 24 h Dmax %: —: “-”=not tested or inactive; conditions: for Dmax: read-out: MK2 MSD SW 1353 24 h Dmax %; for DC50: read-out: MK2 MSD SW1353 degradation 24 h GMean External Abs DC50
Summary of the method: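 SW1353 chondrosarcoma cells were treated with up to 10-point serial dilutions (0.1% DMSO) for 24 h at 37 °C, then lysed in RIPA buffer. MK2 levels were quantified by MSD sandwich immunoassay; DC50 came from a 4-parameter logistic fit normalised to DMSO-treated cells (high) and lysis buffer (low).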

T1 sequence (P49137 whole entry): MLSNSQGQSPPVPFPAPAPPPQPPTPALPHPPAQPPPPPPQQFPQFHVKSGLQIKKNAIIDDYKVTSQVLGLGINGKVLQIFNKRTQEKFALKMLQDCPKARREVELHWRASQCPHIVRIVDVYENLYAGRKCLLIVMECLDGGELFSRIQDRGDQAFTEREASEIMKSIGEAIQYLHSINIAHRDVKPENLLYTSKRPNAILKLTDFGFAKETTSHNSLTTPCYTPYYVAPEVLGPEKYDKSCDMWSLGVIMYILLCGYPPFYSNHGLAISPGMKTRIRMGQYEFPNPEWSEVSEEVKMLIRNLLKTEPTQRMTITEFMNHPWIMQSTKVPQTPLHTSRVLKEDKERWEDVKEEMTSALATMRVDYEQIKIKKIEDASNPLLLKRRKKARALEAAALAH

| Compound | Dmax (MK2 [1]) [%] | DC50 (MK2 [1]) [nM] | Dmax (MK2 [2]) [%] | DC50 (MK2 [2]) [nM] | MK2 MSD SW 1353 24 h Dmax % (MK2 [2]) |
| --- | --- | --- | --- | --- | --- |
| C[C@@H]1CNc2c(sc3ccc4nc(-c5ccnc(N6CCN(CCCc7ccc8c(c7)n(C)c(=O)n8C7CCC(=O)NC7=O)CC6)c5)ccc4c23)C(=O)N1 (stereo partly shown) [Compound I-275] | > 75 | < 1 | > 75 | < 1 |  |
| C[C@@H]1CNc2c(sc3ccc4nc(-c5ccnc(N6CCN(CC7CCN(c8cccc9c8n(C)c(=O)n9C8CCC(=O)NC8=O)CC7)CC6)c5)ccc4c23)C(=O)N1 (stereo partly shown) [Compound I-276] | > 75 | 1 to 10 | > 75 | 1 to 10 |  |
| C[C@@H]1CNc2c(sc3ccc4nc(-c5ccnc(N6CCC(CN7CCN(c8ccc9c(c8)n(C)c(=O)n9C8CCC(=O)NC8=O)CC7)CC6)c5)ccc4c23)C(=O)N1 (stereo partly shown) [Compound I-277] | > 75 | < 1 | > 75 | < 1 |  |
| C[C@@H]1CNc2c(sc3ccc4nc(-c5ccnc(N6CCN(CC7CCN(c8ccc9c(c8)n(C)c(=O)n9C8CCC(=O)NC8=O)CC7)CC6)c5)ccc4c23)C(=O)N1 (stereo partly shown) [Compound I-278] | > 75 | < 1 | > 75 | < 1 |  |
| C[C@@H]1CNc2c(sc3ccc4nc(-c5ccc(N6CCN(CCc7ccc8c(c7)n(C)c(=O)n8C7CCC(=O)NC7=O)CC6)nc5)ccc4c23)C(=O)N1 (stereo partly shown) [Compound I-279] | > 75 | < 1 | > 75 | < 1 |  |
| C[C@@H]1CNc2c(sc3ccc4nc(-c5ccc(N6CCN(CCc7ccc8c(c7)n(C)c(=O)n8C7CCC(=O)NC7=O)CC6)cc5)ccc4c23)C(=O)N1 (stereo partly shown) [Compound I-280] | > 75 | < 1 | > 75 | < 1 |  |
| C[C@@H]1CNc2c(sc3ccc4nc(-c5cnc(N6CCN(CC7CCN(c8cccc9c8n(C)c(=O)n9C8CCC(=O)NC8=O)CC7)CC6)nc5)ccc4c23)C(=O)N1 (stereo partly shown) [Compound I-281] | > 75 | < 1 | > 75 | 1 to 10 |  |
| C[C@@H]1CNc2c(sc3ccc4nc(-c5cnc(N6CCN(CC7CCN(c8ccc9c(c8)n(C)c(=O)n9C8CCC(=O)NC8=O)CC7)CC6)nc5)ccc4c23)C(=O)N1 (stereo partly shown) [Compound I-282] | > 75 | < 1 | > 75 | < 1 |  |
| Cc1nc(N2CCN(CC3CCN(c4ccc5c(c4)n(C)c(=O)n5C4CCC(=O)NC4=O)CC3)CC2)ccc1-c1ccc2c(ccc3sc4c(c32)NC[C@@H](C)NC4=O)n1 (stereo partly shown) [Compound I-283] | > 75 | < 1 | > 75 | < 1 |  |
| C[C@@H]1CNc2c(sc3ccc4nc(-c5cc(N6CCC(CN7CCC(c8cccc9c8n(C)c(=O)n9C8CCC(=O)NC8=O)CC7)CC6)ccc5F)ccc4c23)C(=O)N1 (stereo partly shown) [Compound I-284] | > 75 | 1 to 10 | > 75 | 1 to 10 |  |
| C[C@@H]1CNc2c(sc3ccc4nc(-c5cc(N6CCC(CN7CCN(c8cccc9c8n(C)c(=O)n9C8CCC(=O)NC8=O)CC7)CC6)ccc5F)ccc4c23)C(=O)N1 (stereo partly shown) [Compound I-285] | > 75 | 1 to 10 | > 75 | 1 to 10 |  |
| C[C@@H]1CNc2c(sc3ccc4nc(-c5cc(N6CCN(CCCCCCCCc7cccc8c7n(C)c(=O)n8C7CCC(=O)NC7=O)CC6)ccc5F)ccc4c23)C(=O)N1 (stereo partly shown) [Compound I-286] | 50 to 75 | 10 to 100 | > 75 | 10 to 100 |  |
| C[C@@H]1CNc2c(sc3ccc4nc(-c5ccc(N6CCN(CCCc7ccc8c(c7)n(C)c(=O)n8C7CCC(=O)NC7=O)CC6)nc5)ccc4c23)C(=O)N1 (stereo partly shown) [Compound I-287] | > 75 | < 1 | > 75 | < 1 |  |
| C[C@@H]1CNc2c(sc3ccc4nc(-c5ccc(N6CCN(CCCc7cccc8c7n(C)c(=O)n8C7CCC(=O)NC7=O)CC6)nc5)ccc4c23)C(=O)N1 (stereo partly shown) [Compound I-288] | > 75 | < 1 | > 75 | < 1 |  |
| C[C@@H]1CNc2c(sc3ccc4nc(-c5ccc(N6CCN(CC7CCN(c8ccc9c(c8)n(C)c(=O)n9C8CCC(=O)NC8=O)CC7)CC6)cc5F)ccc4c23)C(=O)N1 (stereo partly shown) [Compound I-289] | > 75 | < 1 | > 75 | 1 to 10 |  |
| C[C@@H]1Cc2[nH]c(-c3ccnc(-c4ccc(N5CCN(CC6CCN(c7cccc8c7n(C)c(=O)n8C7CCC(=O)NC7=O)CC6)CC5)cc4)c3)cc2C(=O)N1 (stereo partly shown) [Compound I-290] | > 75 | < 1 | > 75 | 1 to 10 |  |
| Cc1cc(N2CCC(CN3CCC(c4ccc5c(c4)n(C)c(=O)n5C4CCC(=O)NC4=O)CC3)CC2)ccc1-c1ccc2c(ccc3sc4c(c32)NC[C@@H](C)NC4=O)n1 (stereo partly shown) [Compound I-291] | > 75 | < 1 | > 75 | < 1 |  |
| C[C@@H]1CNc2c(sc3ccc4nc(-c5ccc(N6CCC(CN7CCN(c8ccc9c(c8)n(C)c(=O)n9C8CCC(=O)NC8=O)CC7)CC6)cc5Cl)ccc4c23)C(=O)N1 (stereo partly shown) [Compound I-292] | > 75 | < 1 | > 75 | 1 to 10 |  |
| C[C@@H]1CNc2c(sc3ccc4nc(-c5cccc(N6CCC7(CC6)CN(CCCCCCc6cccc8c6n(C)c(=O)n8C6CCC(=O)NC6=O)C7)c5)ccc4c23)C(=O)N1 (stereo partly shown) [Compound I-293] | > 75 | < 1 | > 75 | 10 to 100 |  |
| C[C@@H]1CNc2c(sc3ccc4nc(-c5ccc(N6CCC7(CC6)CN(CCCCCCc6cccc8c6n(C)c(=O)n8C6CCC(=O)NC6=O)C7)cc5)ccc4c23)C(=O)N1 (stereo partly shown) [Compound I-294] | > 75 | < 1 | > 75 | 1 to 10 |  |
| O=C1CCC(N2Cc3cc(N4CCN(CC5CCN(c6ccc(-c7cc(-c8cc9c([nH]8)CCNC9=O)ccn7)c(F)c6)CC5)CC4)ccc3C2=O)C(=O)N1 (stereo not shown) [Compound I-295] | 50 to 75 | 10 to 100 | > 75 | 10 to 100 |  |
| C[C@@H]1CNc2c(sc3ccc4nc(-c5cccc(C6CCN(CCN7CCC(CCc8cccc9c8n(C)c(=O)n9C8CCC(=O)NC8=O)CC7)CC6)c5)ccc4c23)C(=O)N1 (stereo partly shown) [Compound I-296] |  | 1 to 10 |  | 10 to 100 | — |
| C[C@@H]1CNc2c(sc3ccc4nc(-c5ccc(N6CCC(CN7CCC(c8ccc9c(c8)n(C)c(=O)n9C8CCC(=O)NC8=O)CC7)CC6)cc5F)ccc4c23)C(=O)N1 (stereo partly shown) [Compound I-297] | > 75 | < 1 | > 75 | < 1 |  |
| Cc1cc(N2CCC(CN3CCN(c4ccc5c(c4)n(C)c(=O)n5C4CCC(=O)NC4=O)CC3)CC2)ccc1-c1ccc2c(ccc3sc4c(c32)NC[C@@H](C)NC4=O)n1 (stereo partly shown) [Compound I-298] | > 75 | < 1 | > 75 | < 1 |  |
| C[C@@H]1CNc2c(sc3ccc4nc(-c5ccc(N6CCC(CN7CCC(c8cccc9c8n(C)c(=O)n9C8CCC(=O)NC8=O)CC7)CC6)cc5F)ccc4c23)C(=O)N1 (stereo partly shown) [Compound I-299] | > 75 | < 1 | > 75 | < 1 |  |
| Cn1c(=O)n(C2CCC(=O)NC2=O)c2cccc(CCCCCCN3CCC4(CC3)CNC(=O)c3c4[nH]c4c3CCc3cnc(-c5ccccc5F)cc3-4)c21 (stereo not shown) [Compound I-300] | < 50 | > 100 | < 50 | > 100 |  |

— US20230135894A1, “MK2 DEGRADERS AND USES THEREOF” (Kymera Therapeutics, Inc., priority 2021, published 2023)
